Consider 5 molecules from PMC5967328, “Salvianolic acids from antithrombotic Traditional Chinese Medicine Danshen are antagonists of human P2Y1 and P2Y12 receptors” (Scientific Reports, 2018).

Molecules are shown by their SMILES. “Also recorded” adds a separate entry of the source. Where two headings read alike, the source gives them in different places.

Data set [1] addresses T1, P2Y12 receptor (Homo sapiens, UniProt Q9H244). Description: [3H]2MeSADP radioligand binding at the P2Y12 receptor (U2OS membranes). On the set-up: expressed in transfected cells; host or cells: U2OS cells (membrane preparation). Here is the method: The eleven selected components were further examined in radioligand binding and functional assays. We initially tested the eleven compounds by measuring the inhibition of [^3H]2-methylthioadenosine 5′-diphosphate (2MeSADP) binding at the human P2Y12 receptor (Fig. 1b).
(§1) U2Os cells expressing the P2Y1 or P2Y12 receptors were cultured in DMEM supplemented with 10% fetal bovine serum, 100 Units/ml penicillin, 100 µg/ml streptomycin and 2 µmol/ml glutamine. After reaching confluence, cells were detached from plates by scraping into PBS and centrifuged at 250 g for 5 min. The resulting pellets were re-suspended in ice-cold Tris-HCl buffer (50 mM, pH 7.4) and homogenized. After homogenization and suspension, cells were centrifuged at 1000 g for 10 min and the pellet was discarded. The suspension was re-centrifuged at 20,000 g for 60 min at 4 °C. The pellets were re-suspended, split into aliquots and stored at −80 °C. The protein concentration was measured using the Bradford assay. For P2Y1 and P2Y12 receptor binding assays, saturation curves were measured by addition of various concentrations of 50 µl [^3H]2MeSADP (specific activity, 7.5 Ci/mmol; Movarek Biochemicals, Brea, CA) and 100 μl of membrane suspension to a total of 200 μl of total assay volume. Non-specific binding was determined using 10 µM MRS2500 (Tocris; St. Louis, MO) for the P2Y1 receptor and 10 μM SAR216471 (Tocris; St. Louis, MO) for the P2Y12 receptor. For the displacement assay, various concentrations of inhibitors were incubated with [^3H]2MeSADP (1.0 nM for P2Y1; 0.4 nM for P2Y12) and membrane preparations (20 µg/sample) at 25 °C for 60 min. The separation of bound from free radioligand was accomplished by rapid vacuum filtration of the incubation mixture over GF/B filter using a Brandel cell harvester (Brandel Inc., Gaithersburg, MD). Filters were washed two times with 3 ml of ice-cold Tris-HCl buffer, pH 7.5. Radioactivity on the filters was quantified using a Tri-carb Liquid Scintillation Counter (PerkinElmer Life and Analytical Sciences). 2MeSADP was purchased from Sigma (St. Louis, MO). All other materials were from standard commercial sources and of analytical grade. For radioligand binding, calculation of apparent binding affinities, Ki = IC50/(1 + [radioligand]/Kd), was performed using the nonlinear iterative curve-fitting program of Prism (GraphPad Software Inc., San Diego, CA).

Another data set concerns the target T2, α1B adrenergic receptor (Homo sapiens, UniProt P35368).
T2 construct: Psychoactive Drug Screening Program (PDSP)
T2 sequence (P35368 1-520): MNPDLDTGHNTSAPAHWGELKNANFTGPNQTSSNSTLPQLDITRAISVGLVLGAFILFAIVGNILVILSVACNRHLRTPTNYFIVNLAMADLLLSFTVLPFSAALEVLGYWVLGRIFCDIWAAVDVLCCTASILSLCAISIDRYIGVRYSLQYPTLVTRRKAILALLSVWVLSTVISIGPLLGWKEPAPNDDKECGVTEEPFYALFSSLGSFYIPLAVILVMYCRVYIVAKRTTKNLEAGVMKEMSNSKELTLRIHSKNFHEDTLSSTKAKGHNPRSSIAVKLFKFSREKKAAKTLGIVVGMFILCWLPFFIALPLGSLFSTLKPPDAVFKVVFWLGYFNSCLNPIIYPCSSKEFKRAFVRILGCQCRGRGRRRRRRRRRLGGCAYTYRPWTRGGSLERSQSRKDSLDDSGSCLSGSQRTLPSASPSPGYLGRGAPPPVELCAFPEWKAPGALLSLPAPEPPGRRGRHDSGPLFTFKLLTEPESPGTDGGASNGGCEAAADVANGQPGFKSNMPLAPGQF
Description: [3H]Prazosin binding assay (PDSP). The text has this:
We also tested if SAA, SAB and SAC are promiscuously binding compounds, due to the fact that they all have multiple phenolic groups and are thus potentially PAINS[36]. To find other possible targets of the three compounds, we evaluated their potential binding to 45 diverse receptors, transporters and ion channels (human, unless noted) using radioligand binding assays via the Psychoactive Drug Screening Program (PDSP) (Table S1)[37].
Figure S3. Binding activit y of SAB (compound 44297) to the α1B adrenergic receptor was measured b y [ 3H]Prazosin binding assays for three repeats (a-c). Prazosin is an inverse agonist of the α1B adrenergic receptor. Th e av erage Ki o f SAB was determined […]
(§2) (1 picture or pasted object on this page, not shown here)

Another data set deals with T3, adrenergic α1B receptor (Homo sapiens, UniProt P35368).
T3 construct: expressed in transfected cells
T3 sequence (P35368 1-520): T2 sequence (P35368 1-520)
The data set can be described thus: FLIPR agonist and antagonist assays. It counts as cell-based. On the procedure: For agonist assay: cell line expressing target receptor was seeded in a 384-well black-wall, clear-bottom plate about 18 hours prior to the day of experiment and maintained at 37 °C/5% CO2. Then, 20 μl of dye-loading solution was added into the wells and the plates were subsequently placed into a 37 °C incubator for 60 min, followed by a 15 min incubation at room temperature. At last, 10 μl of compounds or control agonist were added into respective wells of the assay plate during reading in FLIPR.
For antagonist assay: cell line expressing target receptor was seeded in a 384-well black-wall, clear-bottom plate about 18 hours prior to the day of experiment and maintained at 37 °C/5% CO2. Then the dye-loading solution and 10 μl of control antagonist and test samples were added into respectively wells in sequence. The plates were subsequently placed into a 37 °C incubator for 60 min, followed by a 15 min incubation at room temperature. At last, 12.5 μl of control agonist were added into respective wells of the assay plate during reading in FLIPR.
The fun ctional activit y of SAB on the adrener gi c α1B re ceptor we re tested b y […]

Details of data set [2]: method as in PMID 21569331. The conditions noted are these: rat plasma, cited from earlier work.
Data set [3] concerns the target T1, P2Y12 receptor. Description: Antagonism of 2MeSADP-induced inhibition of forskolin-stimulated cAMP accumulation, Schild analysis. The format is cell-based. Also on record: expressed in transfected cells; host or cells: U2OS cells. Here is the method: The functional antagonism of these three salvianolic acids against the P2Y12 receptor was measured by their effect on agonist-induced inhibition of forskolin-stimulated cyclic AMP accumulation in P2Y12 receptor-expressing U2OS cells. For example, in a concentration-dependent manner, SAA shifted the agonist response curve to the right without affecting its maximum agonist effect (Fig. 2b). This observation is consistent with competitive antagonism, but allosteric antagonism cannot be excluded. Schild analysis of the antagonism yielded KB values of 24.2 ± 5.9, 33.6 ± 6.4 and 23.7 ± 4.5 µM for SAA, SAB and SAC, respectively (Fig. 2c).
U2Os cells expressing the P2Y12 receptor were cultured in DMEM medium containing 10% fetal bovine serum, 100 units/ml penicillin, 100 µg/ml streptomycin and 2 µmol/ml glutamine. For the assay of cAMP accumulation, cells were plated in 96-well plates in 100 µl medium overnight. Cells were then treated with assay buffer containing rolipram ([…]) and antagonists for 20 min followed by the addition of agonists and incubate for 10 min. After 10 min incubation with agonist, Forskolin (10 μM) was added to the mixture and the incubation was continued for another 10 min. The reaction was terminated upon removal of the supernatant and addition of 100 µl Tween-20 (0.3%). Intracellular cAMP levels were measured with an ALPHAScreen cAMP assay kit as instructed by the manufacturer (PerkinElmer). Binding and functional parameters were calculated using Prism 7.0 software (GraphPAD, San Diego, CA, USA). Data were expressed as mean ± sem.

Data set [4] addresses T4, P2Y1 receptor (Homo sapiens, UniProt P47900). The data set can be described thus: [3H]2MeSADP radioligand binding at the P2Y1 receptor (U2OS membranes). On the set-up: expressed in transfected cells; host or cells: U2OS cells (membrane preparation). The conditions noted are these: for inhibitory effect on [3H]2MeSADP binding to the P2Y1 receptor (initial binding results): in words; for IC50: average. On the procedure:
(§3) Both P2Y1 and P2Y12 receptors play important roles in platelet aggregation. Therefore, we also tested the potential effects of SAA, SAB and SAC on the P2Y1 receptor. […] SAA and SAC antagonized 2MeSADP-induced accumulation of inositol 1-phosphate (IP-1) (Fig. 2e). KB values calculated by Schild analysis for the P2Y1 receptor were 9.1 ± 1.5 and 15.6 ± 2.0 µM for SAA and SAC, respectively (Fig. 2f). Thus, the Schild analysis of the antagonist potencies of SAA and SAC for Gq-coupled P2Y1 and Gi-coupled P2Y12 receptors was consistent with their binding affinities measured in the radioligand assays.
as §1
Figure S2. The effects of Tween -20 on the inhibition by SAA (a) and SAC (b) of
[3H]2MeSADP binding to the human P2Y1 recept or. Data are ex pressed Me an ± SD from
2- 3 independent experiments. The average IC50 values of SAA in the absence and
presence of 0.01% Tween- 20 are 21.2 and 19.3 μM, respectivel y. The IC50 values of
SAC in the absence and p resence of 0.01% Tween- 20 are 29.4 and 23.7 μM, respectivel y.
The c ritical micelle concentration (CMC) of Tween -20 is 0.0074%.
as §2

Data set [5] deals with T4, P2Y1 receptor. Description: Antagonism of 2MeSADP-induced IP-1 accumulation, Schild analysis. On the set-up: expressed in transfected cells; host or cells: U2OS cells. The format is cell-based. On the procedure: as §3
Inositol 1-phosphate (IP-1) was measured using the IP-One Tb HTRF kit (Cisbio Bioassays, Bedford, MA) as described previously[60],[61]. Briefly, after overnight growth, U2Os cells expressing the P2Y1 receptor were first treated with an antagonist for 20 min before the treatment with agonist and incubated for another 60 min. IP-1 detection reagents were added as instructed by the manual from the manufacturer. The assay plates were read on a Mithras LB940 reader (Berthold Technologies, Oak Ridge, TN) using a time-resolved fluorescence ratio (665/620 nm).

T4 sequence (P47900 whole entry): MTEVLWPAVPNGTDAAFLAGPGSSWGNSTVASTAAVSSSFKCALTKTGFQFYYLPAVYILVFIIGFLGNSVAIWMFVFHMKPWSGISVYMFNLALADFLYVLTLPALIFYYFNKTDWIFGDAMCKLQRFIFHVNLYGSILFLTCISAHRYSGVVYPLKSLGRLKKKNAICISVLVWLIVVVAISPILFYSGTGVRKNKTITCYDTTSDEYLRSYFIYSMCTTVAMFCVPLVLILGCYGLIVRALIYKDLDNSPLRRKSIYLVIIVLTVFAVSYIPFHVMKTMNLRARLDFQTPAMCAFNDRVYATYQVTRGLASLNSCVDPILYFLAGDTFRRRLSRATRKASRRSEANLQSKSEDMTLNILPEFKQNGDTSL
T1 sequence (Q9H244 whole entry): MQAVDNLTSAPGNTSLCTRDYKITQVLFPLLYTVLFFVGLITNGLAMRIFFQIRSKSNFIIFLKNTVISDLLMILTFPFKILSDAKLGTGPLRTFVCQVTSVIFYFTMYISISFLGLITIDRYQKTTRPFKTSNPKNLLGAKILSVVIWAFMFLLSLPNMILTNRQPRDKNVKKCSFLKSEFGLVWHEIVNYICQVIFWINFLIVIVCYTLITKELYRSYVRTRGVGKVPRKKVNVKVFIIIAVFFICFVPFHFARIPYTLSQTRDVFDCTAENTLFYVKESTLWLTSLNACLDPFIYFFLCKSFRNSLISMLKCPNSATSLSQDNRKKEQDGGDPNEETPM

On to `O=C(O)Cc1c(/C=C/C(=O)O[C@H](Cc2ccc(O)c(O)c2)C(=O)O)ccc(O)c1O` [salvianolic acid D], for which, on P2Y12 receptor [1] (100 µM compound), the “inhibition of [3H]2MeSADP binding at the human P2Y12 receptor” value (“inhibition of [3H]2MeSADP binding” for short) was found to be 33.5 ± 8.6%.
Turning to `O=C(C=Cc1ccc(O)c2c1C(C(=O)OC(Cc1ccc(O)c(O)c1)C(=O)O)C(c1ccc(O)c(O)c1)O2)OC(Cc1ccc(O)c(O)c1)C(=O)O` (stereo not shown) [SAB, salvianolic acid B], the inhibition constant Ki came to 6.26 ± 1.46 µM on α1B adrenergic receptor and 36.4 ± 20.3 µM on P2Y12 receptor [1]. Moreover, the “agonist activity on α1B” value on adrenergic α1B receptor (FLIPR agonist assay) was “did not show agonist activity; also recorded: neither agonist nor antagonist”. The “antagonist activity on α1B” value on adrenergic α1B receptor (FLIPR antagonist assay) is “did not show antagonist activit y; also recorded: neither agonist nor antagonist”. For the same molecule, the t1/2 entry in data set [2] (100 mg/kg, i.v.) was “about 105 min”; in data set [2] (500 mg/kg, p.o.), 4.13 h. At P2Y12 receptor [3], this molecule displayed an antagonist equilibrium constant (Kb) of 33.6 ± 6.4 µM. Besides, the “inhibition of [3H]2MeSADP binding” value on P2Y12 receptor [1] (100 µM compound) is on record as “significant inhibitory effect”. Moreover, the “inhibitory effect on [3H]2MeSADP binding to the P2Y1 receptor (initial binding results)” value (“inhibitory effect on [3H]2MeSADP binding” for short) on P2Y1 receptor [4] is recorded as “significantly weaker”.
For the molecule `O=C(/C=C/c1ccc(O)c(O)c1)O[C@H](Cc1ccc(O)c(O)c1)C(=O)O` [rosmarinic acid], the inhibition at 100 µM at P2Y12 receptor [1] (100 µM compound) came out at 31.6 ± 6.2%.
Regarding `O=C(/C=C/c1ccc(O)c2oc(-c3ccc(O)c(O)c3)cc12)O[C@H](Cc1ccc(O)c(O)c1)C(=O)O` [SAC, salvianolic acid C], the Kb came out at 23.7 ± 4.5 µM at P2Y12 receptor [3] and 15.6 ± 2 µM at P2Y1 receptor [5] (U2OS cells expressing P2Y1, IP-1 accumulation, read-out: KB (Schild analysis), P2Y1 receptor). Besides, the “inhibition of [3H]2MeSADP binding” value on P2Y12 receptor [1] (100 µM compound) is listed as “significant inhibitory effect”. Besides, the Ki at P2Y12 receptor [1] (full inhibition curves vs [3H]2MeSADP (0.4 nM), read-out: Ki, P2Y12 receptor binding) worked out at 15.6 ± 6.5 µM; at P2Y1 receptor [4] (vs [3H]2MeSADP (1.0 nM), read-out: Ki, P2Y1 receptor binding), 23.3 ± 4.5 µM. Further, the half-maximal inhibitory concentration (IC50) turned out to be 29.4 µM at P2Y1 receptor [4] (absence of Tween-20, read-out: IC50, inhibition of [3H]2MeSADP binding to human P2Y1 receptor) and 23.7 µM at P2Y1 receptor [4] (presence of 0.01% Tween-20, read-out: IC50, inhibition of [3H]2MeSADP binding to human P2Y1 receptor). The “inhibitory effect on [3H]2MeSADP binding” value at P2Y1 receptor [4] is “substantial inhibitory effect”.
As to `O=C(/C=C/c1ccc(O)c(O)c1/C=C/c1ccc(O)c(O)c1)O[C@H](Cc1ccc(O)c(O)c1)C(=O)O` [SAA, salvianolic acid A], the t1/2 in data set [2] (100 mg/kg, p.o.) was 3.28 h. The values for the antagonist equilibrium constant (Kb) at P2Y12 receptor [3] and at P2Y1 receptor [5] were 24.2 ± 5.9 µM and 9.1 ± 1.5 µM, respectively. Further, the inhibition constant (Ki) at P2Y12 receptor [1] turned out to be 20.3 ± 1.5 µM; at P2Y1 receptor [4], 14.7 ± 2.4 µM. For the same molecule, the “inhibition of [3H]2MeSADP binding” value at P2Y12 receptor [1] (100 µM compound) is on record as “significant inhibitory effect”. In addition, the IC50 at P2Y1 receptor [4] (IC50, inhibition of [3H]2MeSADP binding to human P2Y1 receptor, absence of Tween-20) is 21.2 µM; on P2Y1 receptor [4] (IC50, inhibition of [3H]2MeSADP binding to human P2Y1 receptor, presence of 0.01% Tween-20), 19.3 µM. Also, on P2Y1 receptor [4], the “inhibitory effect on [3H]2MeSADP binding” value is given as “substantial inhibitory effect”.
